Test results published in PMC11440035, “Interaction of myricetin, ampelopsin (dihydromyricetin), and their sulfate metabolites with serum albumin, cytochrome P450 (CYP2C9, 2C19, and 3A4) enzymes, and organic anion‐transporting polypeptides (OATP1B1 and OATP2B1)” (Pharmacology Research & Perspectives, 2024).
pIC50: −log10 of the molar value. Values belong to the compound of their own block, whether it stands above or below them.

Tests used:
[1] = tested on: T1, CYP3A4; assay: CYP3A4 assay (testosterone hydroxylation), CypExpress human kit; format: biochemical; settings: 20 μM, 5 μM substrate
T1 construct: purchased Merck (Darmstadt, Germany)

[2] = tested on: T2, human serum albumin (HSA); design: method as in PMID 30562928, PMID 28135601; settings: same experimental conditions; cited from earlier work
T2 construct: purchased Merck (Darmstadt, Germany) A1653

[3] = tested on: CYP2C9; settings: 20 μM test substance, 5 μM substrate
[4] = biological target: T3, OATP1B1 (Homo sapiens, UniProt Q9Y6L6); assay: Uptake of flavonoids by A431-OATP1B1 versus mock cells (APB fluorescence); format: cell-based; settings: BSP 20 μM, M3′S 2 μM, 2 min
T3 construct: expressed in transfected cells; host or cells: A431
T3 sequence (Q9Y6L6 1-691): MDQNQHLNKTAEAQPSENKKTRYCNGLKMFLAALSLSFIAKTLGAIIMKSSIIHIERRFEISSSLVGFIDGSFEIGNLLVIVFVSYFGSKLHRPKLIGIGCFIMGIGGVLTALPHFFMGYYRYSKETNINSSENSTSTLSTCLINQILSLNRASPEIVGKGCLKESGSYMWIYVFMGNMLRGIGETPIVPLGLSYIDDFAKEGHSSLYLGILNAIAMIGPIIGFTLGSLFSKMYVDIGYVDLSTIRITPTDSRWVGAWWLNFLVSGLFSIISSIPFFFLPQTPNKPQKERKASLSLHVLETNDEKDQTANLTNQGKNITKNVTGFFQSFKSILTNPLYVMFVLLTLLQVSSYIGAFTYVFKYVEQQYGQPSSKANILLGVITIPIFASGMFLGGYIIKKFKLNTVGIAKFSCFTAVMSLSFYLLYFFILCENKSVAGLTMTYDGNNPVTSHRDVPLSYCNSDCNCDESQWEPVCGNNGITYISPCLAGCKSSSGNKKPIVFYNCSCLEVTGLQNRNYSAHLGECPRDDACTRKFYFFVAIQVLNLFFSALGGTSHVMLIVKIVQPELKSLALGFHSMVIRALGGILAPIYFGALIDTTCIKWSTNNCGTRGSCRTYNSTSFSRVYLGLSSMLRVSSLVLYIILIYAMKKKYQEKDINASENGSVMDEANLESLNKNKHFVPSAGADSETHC
Experimental: (§1) Direct uptake of AMP, MYR, and their sulfate metabolites were examined in A431 cells overexpressing OATP1B1 or OATP2B1, and in their mock‐transfected controls using APB as a fluorescence enhancer. One day before the uptake measurements, the cells were seeded onto 96‐well plates at a density of 80 000 cells/well in DMEM (200 μL). The following day, the cell culture medium was removed, and the cells were rinsed thrice with PBS (200 μL). Thereafter, the cells were preincubated with HBSS (50 μL) for 5 min at 37°C. The uptake reaction was initiated by the addition of a further 50 μL of HBSS containing AMP, MYR, or their sulfate conjugates (10 μM). After incubating for 15 min at 37°C, the reaction was stopped by removing the supernatant and rinsing the cells three times with ice‐cold PBS. Then PBS buffer (200 μL) containing APB (250 μg/mL) and BSA (1 mg/mL) was added to each well.[35] The fluorescence was read using an Enspire plate reader using the wavelengths listed in Section 2.7.
(§2) The concentration‐dependent uptake of M3′S was also tested under the same conditions, except the cells were incubated with 0–10 μM M3′S for 2 min (OATP1B1) or 5 min (OATP2B1).
(§3) To test the effect of BSP (a known inhibitor of OATPs[44]) on the cellular uptake of M3′S, cells were preincubated with HBSS buffer (50 μL) with or without BSP (20 μM) for 5 min at 37°C. Thereafter, we added 50 μL of HBSS containing M3′S (final concentration: 2 μM), and cells were further incubated at 37°C for 2 min (OATP1B1) or 5 min (OATP2B1). The reaction was stopped by removing the supernatant. After washing the cells with ice‐cold PBS, a PBS buffer with APB/BSA was added. Fluorescence was determined by applying an Enspire plate reader at excitation/emission wavelengths of 480/540 nm.

[5] = biological target: T4, OATP2B1 (Homo sapiens, UniProt O94956); assay: Uptake of flavonoids by A431-OATP2B1 versus mock cells (APB fluorescence); format: cell-based; settings: BSP 20 μM, M3′S 2 μM, 5 min
T4 construct: expressed in transfected cells; host or cells: A431
T4 sequence (O94956 1-709): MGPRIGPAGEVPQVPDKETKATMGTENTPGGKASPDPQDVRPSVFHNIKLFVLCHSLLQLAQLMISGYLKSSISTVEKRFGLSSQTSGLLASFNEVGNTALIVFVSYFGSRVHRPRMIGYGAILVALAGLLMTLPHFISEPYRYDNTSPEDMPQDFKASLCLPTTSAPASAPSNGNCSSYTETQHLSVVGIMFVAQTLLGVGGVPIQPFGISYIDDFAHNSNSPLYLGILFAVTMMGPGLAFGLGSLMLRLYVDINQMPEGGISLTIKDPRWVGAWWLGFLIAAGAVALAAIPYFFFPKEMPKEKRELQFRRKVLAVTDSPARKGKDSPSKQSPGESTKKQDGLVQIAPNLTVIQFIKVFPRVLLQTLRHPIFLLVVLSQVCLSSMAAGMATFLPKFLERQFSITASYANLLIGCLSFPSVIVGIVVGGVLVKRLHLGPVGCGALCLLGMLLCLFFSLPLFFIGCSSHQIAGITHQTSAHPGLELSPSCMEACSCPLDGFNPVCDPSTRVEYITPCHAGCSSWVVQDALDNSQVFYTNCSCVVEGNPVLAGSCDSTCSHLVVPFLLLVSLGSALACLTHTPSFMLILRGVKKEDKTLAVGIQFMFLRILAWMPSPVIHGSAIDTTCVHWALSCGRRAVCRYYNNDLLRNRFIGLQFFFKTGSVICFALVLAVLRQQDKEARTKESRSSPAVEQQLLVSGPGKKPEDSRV
Experimental: as §1, §2, §3

[6] = biological target: T3, OATP1B1; design: method as in PMID 32661014; settings: positive control, same experimental model; cited from earlier work
[7] = biological target: T4, OATP2B1; design: method as in PMID 32661014; settings: positive control, same experimental model; cited from earlier work

SMILES: CC(=O)N1CCN(c2ccc(OCC3COC(Cn4ccnc4)(c4ccc(Cl)cc4Cl)O3)cc2)CC1 (centres unmarked) [ketoconazole]
effect on CYP3A4 metabolite formation [1]: marked decreases in metabolite formation

SMILES: O=c1cc(-c2ccccc2)oc2cc(OS(=O)(=O)O)cc(O)c12 [chrysin‐7‐sulfate]
displacement of the site marker warfarin from HSA [2]: almost completely displaced the site marker

effect on CYP2C9‐catalyzed diclofenac hydroxylation (metabolite formation) [3]: marked decreases in metabolite formation
SMILES: Nc1ccc(S(=O)(=O)Nc2ccnn2-c2ccccc2)cc1 [sulfaphenazole]

SMILES: O=c1c(O)c(-c2ccc(O)c(OS(=O)(=O)O)c2)oc2cc(O)cc(O)c12 [quercetin‐3′‐sulfate]
displacement of the site marker warfarin from HSA [2]: almost completely displaced the site marker

SMILES: O=C1OC(c2ccc(O)c(S(=O)(=O)O)c2)(c2ccc(O)c(S(=O)(=O)O)c2)c2c(Br)c(Br)c(Br)c(Br)c21 [BSP, bromosulfophthalein, reference compound]
effect on uptake of M3′S into OATP1B1‐overexpressing cells [4]: considerably decreased the uptake of M3′S | effect on uptake of M3′S into OATP2B1‐overexpressing cells [5]: considerably decreased the uptake of M3′S | pIC50 [6]: 7.22 | pIC50 [7]: 5.89
